PubChem BioAssay (NCI)
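48-hour exposure; five concentrations; linearly interpolated endpoints. GI50 is the concentration that inhibits growth by half. Definition used: TGI = concentration required for complete inhibition of growth.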

Assays:
Test in all cases: growth of human tumour cells (NCI), 48 h
786-0 renal = test system: 786-0 renal
A549 NSCLC = test system: A549 NSCLC
COLO 205 colon = test system: COLO 205 colon
HCT-15 colon = test system: HCT-15 colon
LOX IMVI melanoma = test system: LOX IMVI melanoma
RPMI-8226 leukemia = test system: RPMI-8226 leukemia
SF-295 CNS = test system: SF-295 CNS
SNB-19 CNS = test system: SNB-19 CNS
HL-60(TB) leukemia = test system: HL-60(TB) leukemia
NCI-H460 lung = test system: NCI-H460 lung

Row | Compound | TGI (786-0 renal) | TGI (A549 NSCLC) | TGI (COLO 205 colon) | TGI (HCT-15 colon) | TGI (LOX IMVI melanoma) | TGI (RPMI-8226 leukemia) | TGI (SF-295 CNS) | TGI (SNB-19 CNS) | TGI (HL-60(TB) leukemia) | TGI (NCI-H460 lung) | GI50 (786-0 renal) | GI50 (A549 NSCLC) | GI50 (COLO 205 colon) | GI50 (HCT-15 colon) | GI50 (HL-60(TB) leukemia) | GI50 (LOX IMVI melanoma) | GI50 (NCI-H460 lung) | GI50 (RPMI-8226 leukemia) | GI50 (SF-295 CNS) | GI50 (SNB-19 CNS)
1 | COc1ccc(C2CCc3cc4c(cc3/C2=N/OC(C)=O)OCO4)cc1OC (configuration not stated) | > 100 µM | 80.1 µM | 63.5 µM | > 100 µM | 33.1 µM | 47.8 µM | 82.2 µM | > 100 µM | – | – | – | – | – | – | – | – | – | – | – | –
2 | S=c1nc(-c2ccnc(-c3nc(=S)[nH][nH]3)c2)[nH][nH]1 | > 100 µM | > 100 µM | > 100 µM | > 100 µM | > 100 µM | > 100 µM | > 100 µM | > 100 µM | > 100 µM | > 100 µM | – | – | – | – | – | – | – | – | – | –
3 | CC(=O)Oc1ccc2c(c1)CC[C@@H]1C2CC[C@]2(C)C(=O)NC(=O)CC12 (some centres not stated) | > 100 µM | > 100 µM | > 100 µM | – | – | – | > 100 µM | > 100 µM | > 100 µM | > 100 µM | – | – | – | – | – | – | – | – | – | –
4 | Nc1[nH]c(=O)ncc1CO | > 100 µM | > 100 µM | > 100 µM | > 100 µM | > 100 µM | > 100 µM | > 100 µM | > 100 µM | > 100 µM | > 100 µM | > 100 µM | > 100 µM | > 100 µM | > 100 µM | > 100 µM | > 100 µM | > 100 µM | > 100 µM | > 100 µM | > 100 µM
5 | COc1cc2c(c(OC)c1OC)-c1ccc(SC)c(=O)cc1[C@@H](NC(=O)c1ccc(Cl)cc1)CC2 | 15.8 µM | > 100 µM | 0.0265 µM | 0.026 µM | 14.1 µM | 95.3 µM | < 0.01 µM | 11.1 µM | < 0.01 µM | 10.5 µM | – | – | – | – | – | – | – | – | – | –
6 | Cc1nc(N)nc2ccccc12 | > 100 µM | > 100 µM | > 100 µM | > 100 µM | > 100 µM | > 100 µM | > 100 µM | > 100 µM | > 100 µM | > 100 µM | – | – | > 100 µM | – | – | – | – | – | – | –
7 | O=c1c2ccccc2oc2ccc(OCCCCCCN3CCCCCC3)cc12 | 4.35 µM | 11.5 µM | 4.05 µM | 11.1 µM | 3.54 µM | 5.78 µM | 5.87 µM | 14.4 µM | 3.97 µM | 11.3 µM | 1.9 µM | 3.51 µM | 1.93 µM | 2.09 µM | 1.84 µM | 1.85 µM | 3.46 µM | 2.24 µM | 2.16 µM | 4.12 µM
8 | COC(=O)/C(=N\NC(N)=S)C(C#N)c1ccccc1 (configuration not stated) | > 100 µM | > 100 µM | > 100 µM | > 100 µM | > 100 µM | > 100 µM | > 100 µM | > 100 µM | > 100 µM | > 100 µM | – | – | – | – | – | – | – | – | – | –
9 | Cc1cc(Cl)ccc1Nc1nc(C(F)(F)F)ccc1C(=O)N1CCN(c2cccc(Cl)c2)CC1 | > 100 µM | > 100 µM | > 100 µM | > 100 µM | > 100 µM | > 100 µM | > 100 µM | > 100 µM | > 100 µM | > 100 µM | > 100 µM | > 100 µM | > 100 µM | > 100 µM | 69.6 µM | > 100 µM | > 100 µM | 37.2 µM | 88.9 µM | > 100 µM
10 | COc1cc2cc3c4c(cc(OC)c(OC)c4c2cc1OC)CCN3C(=O)CCC(=O)NCCCN(C)C | > 100 µM | > 100 µM | > 100 µM | > 100 µM | 27.3 µM | > 100 µM | > 100 µM | > 100 µM | 56.9 µM | > 100 µM | – | – | – | – | – | – | – | – | – | –
11 | CC1=NN(C(=O)c2ccccc2O)C(=O)/C1=C/c1cccc([N+](=O)[O-])c1 | > 100 µM | > 100 µM | > 100 µM | > 100 µM | > 78.5 µM | > 100 µM | > 100 µM | > 100 µM | > 62.9 µM | > 100 µM | – | – | – | – | – | – | – | – | – | –
12 | COc1ccc(S(=O)(=O)N(C)CC(=O)O)cc1 | > 100 µM | > 100 µM | > 100 µM | > 100 µM | > 100 µM | > 100 µM | > 100 µM | > 100 µM | > 100 µM | > 100 µM | – | – | – | – | – | – | – | – | – | –
13 | CC(=O)OC1CC2C(=O)C(=O)C1(C)C2(C)C (configuration not stated) | > 100 µM | > 100 µM | > 100 µM | > 100 µM | – | > 100 µM | > 100 µM | > 100 µM | – | > 100 µM | – | – | – | – | – | – | – | – | – | –
14 | CC1CC[C@]2(C(=O)O)CCC3(C)C(=CCC4[C@@]5(C)CC[C@H](OS(=O)(=O)c6ccccc6)C(C)(C)C5CC[C@]43C)[C@@H]2[C@H]1C (some centres not stated) | > 100 µM | > 100 µM | > 100 µM | – | > 100 µM | > 100 µM | > 100 µM | > 100 µM | – | > 100 µM | – | – | – | – | – | – | – | – | – | –
15 | CCC1CNC(=O)CC1CC(=O)OC (configuration not stated) | > 100 µM | > 100 µM | – | > 100 µM | > 100 µM | – | – | > 100 µM | > 100 µM | – | – | – | – | – | – | – | – | – | – | –
16 | CO[C@@]12[C@@H]3NC3CN1C1=C(C(=O)C(N)=C(C)C1=O)[C@@H]2COC(N)=O (some centres not stated) | 2.77 µM | 3.62 µM | 2.3 µM | > 100 µM | 2.06 µM | 27.8 µM | – | – | 7.43 µM | 1.44 µM | – | – | 0.55 µM | 0.807 µM | 0.0862 µM | – | – | 1.84 µM | – | –
17 | OCNCCNc1nc2ccccc2c2[nH]c3ccccc3c12 | 2.35 µM | – | > 50 µM | 6.71 µM | 1.39 µM | 2.01 µM | 5.97 µM | 11.7 µM | 3.93 µM | 5.8 µM | 0.34 µM | – | 1.76 µM | 1.42 µM | 1.31 µM | 0.441 µM | 1.46 µM | 0.84 µM | 1.41 µM | 2.1 µM
18 | CCOC(=O)[C@H]1Nc2ccccc2C2c3ccccc3CC21 (some centres not stated) | > 100 µM | > 100 µM | > 100 µM | > 100 µM | > 100 µM | > 100 µM | > 100 µM | > 100 µM | – | > 100 µM | – | – | – | – | – | – | – | – | – | –
